Reference: patent US11229207B2, “Topical avermectin formulations and methods for elimination and prophylaxis of susceptible and treatment resistant strains of head lice” (priority 2006, dated 2022)
Values joined by “and” are separate entries in the source; they are usually repeats but may differ in a detail not shown here. Identical values can stand only once. Like-named read-outs stand apart in the source and are kept apart here.

Legend:
head lice [1] = conditions: cited from earlier work
SF-HL strain = conditions: Moon et al. 2003; cited from earlier work
head lice [2] = conditions: cited from earlier work; remark: listed apart in the source
[3] = test system: SF-HL strain of permethrin-resistant human head lice; assay: Hair tuft mortality bioassay, permethrin-resistant SF-HL lice; assay type: in vivo, Pediculus humanus capitis; parameters: LT50 (lethal time to 50% mortality): unit not given beside the values; conditions: 10 minute exposure
Description: The SF-HL strain of permethrin-resistant human head lice (Pediculus humanus capitis, Phthiraptera:Pediculidae) is collected from infested children in Plantation and Homestead, Fla. and is maintained on an in vitro feeding system at the University of Massachusetts at Amherst, Mass. as described by Yoon et al. (2006). Lice are maintained without a human host on the in vitro rearing system from about 24 to about 36 generations. Permethrin-resistant SF-HL are selected periodically using 1% permethrin-treated filter papers (Yoon et al. 2006). Filter papers (35 mm diameter, Whatman No. 1) are immersed into 1% permethrin dissolved in acetone (w/v) for 10 seconds and is air dried in a dark fumehood from about 20 to about 30 minutes. Mixed developmental stages (first instars to adult) are placed on the treated filter paper and exposed for about 5 hours. Surviving lice are transferred back into the feeding system. The SF-HL strain are susceptible to Ovide® (0.5% malathion), but resistant to Nix® (1% permethim) and cross-resistant to DDT treatments. (Moon et al. 2003).
Mortality bioassays are performed to compare lethal time to 50% mortality values (LT50) between the ivermectin formulations, Nix®, and Ovide®. Experimental lice are newly hatched first instars (less than 24 hours old). The lice are randomly taken from the in vitro rearing system, where the lice take an overnight blood meal. Lice (about 30 lice/treatment) are placed on an individual hair tuft (about 300 strands, about 4 cm in length) using sterile forceps, and the treatment is gently rubbed into the hair until saturation occurs.
After a 10 minute exposure period, the hair tuft with lice are washed sequentially in three separate water baths, containing about 10 ml of ddH2O for about 5 seconds each. The washed hair tuft with lice is blotted onto stacks of filter paper and air dried for about 5 minutes. Any lice dislodged during treatment or washing are placed back onto the treated hair tuft. After drying, the treated hair tuft with lice is examined under a dissecting microscope and the number of dead lice is recorded.
A louse is considered dead if it can not right itself when inverted and when its legs have ceased all movements when probed. Treated hair tufts with lice are then placed onto the feeding membrane in the in vitro rearing system and are maintained at 31° C. and 75% humidity. The numbers of dead lice are reassessed at 10 minute intervals until a greater than 90% mortality is achieved. The timing for mortality begins immediately following the 10 minute exposure period. Because of this, mortality is not assessed during the washing and drying intervals (about 5 minutes). Log time versus logit percent mortality regression lines are generated to determine LT50 and LT95 values and maximum log-likelihood ratio tests are performed to test the equality (slope and intercept) of the regression lines (p<0.05, Polo PC, LeOra Software, 1987).
To determine whether ivermectin in formulation performs better than ivermectin alone, blood-fed lice are placed onto 0.5% (w/v) ivermectin formulation-treated hair tufts as described above. Blood-fed lice are also placed onto hair tufts that are treated with 0.5% ivermectin in acetone (acetone is allowed to volatilize in a fumehood for about 1 hour prior to transferring lice to the treated hair tuft), washed, and transferred to the in vitro rearing system as described above.

[4] = SF-HL lice, Ovide values are estimated times

Molecule: 22,23-dihydroavermectin B1a and B1b [ivermectin]
- effect against head lice in humans (head lice [1]; single oral 200 μg/kg dose, n=26 (Glaziou et al. 1994)): effective
- results against head lice infestation (head lice [1]; single oral dose of 100-200 μg/kg (Dunne et al. 1991)): Positive, but not absolute, results

Molecule: Clc1ccc(C(c2ccc(Cl)cc2)C(Cl)(Cl)Cl)cc1 [DDT]
- status of the SF-HL strain towards the treatment (SF-HL strain): cross-resistant

Molecule: Cl[C@H]1[C@H](Cl)[C@@H](Cl)[C@@H](Cl)[C@H](Cl)[C@H]1Cl [lindane]
- efficacy for treating head lice (head lice [2]; reports in other parts of the world): 61% and 93%
- efficacy for treating head lice (head lice [2]; reports in the U.S.): 17%

Molecule: ivermectin [0.5% (non-formulated)]
- LT50 (lethal time to 50% mortality) [3, 4]: 221.8
- LT95 [3, 4]: 419.4
- times faster than Nix at the LT50 ([3]; SF-HL): 27.9 times
- times faster than Nix at the LT95 ([3]; SF-HL): 51.5 times
- times faster than ddH2O treatment at the LT50 ([3]; SF-HL): 96.7 times
- times faster than ddH2O treatment at the LT95 ([3]; SF-HL): 103.0 times
- times faster than placebo formulation at the LT50 ([3]; SF-HL): 31.2 times
- times faster than placebo formulation at the LT95 ([3]; SF-HL): 82.4 times
